# Patent EP0567205A1, “Use of opiate antagonists in the manufacture of agents for the diagnosis and therapy of hypothalamic function disorders” (Ferring Arzneimittel GmbH, priority 1986, dated 1988)
# Entries after “also recorded” stand apart in the source; their conditions may differ.
# Key:
# [1] = general statement on the known drug; oral administration possible; cited from earlier work
# [2] = system: Patientinnen, die an hypothalamischer Amenorrhoe litten; assay: Naltrexon administration to patients with hypothalamic amenorrhea (serial blood sampling for LH, FSH, prolactin and ovarian steroids; ultrasound); format: in vivo
# Excerpt: Im Rahmen der vorliegenden Erfindung wurden Untersuchungen an Patientinnen mit hypothalamischer Amenorrhoe durchgeführt. Diese Untersuchungen haben überraschenderweise gezeigt, daß durch die Gabe des Opiat-Antagonisten Naltrexon eine Zunahme von Frequenz und Amplitude der LH und FSH Sekretion erreicht wird. Es kann daher davon ausgegangen werden, daß die endogene GnRH Sekretion durch den Opiat-Antagonisten vermehrt wird.
# Die basale Gonadotropin Sekretion von Patientinnen, die an hypothalamischer Amenorrhoe litten, wurde durch Bestimmung von LH und FSH, Prolactin und Ovarien-Steroiden in ßlutproben bewertet, die alle zehn Minuten während 24 Stunden entnommen wurden. Naltrexon wurde dann in einer Dosis von 50 mg pro Tag während 24 oder 28 Tagen verabreicht. 5 Tage und 14 Tage nach dem Beginn der Naltrexonverabreichung wurden wiederholte Blutproben entnommen. An den übrigen Tagen wurden täglich Blutproben entnommen und es wurde eine Ultraschalluntersuchung nach der Naltrexonverabreichung sowie einige Tage danach durchgeführt. Es wurden folgende Ergebnisse ermittelt:
# Auf die Verabreichung von Naltrexon folgte eine Zunahme der Frequenz und der Amplitude der pulsatielen Gonadotropin Sekretion sowie eine Zunahme der mittleren LH und FSH Serumkonzentration sowie der Entwicklung der Gonaden-Steroid Sekretion und der Follikel, was durch Ultraschall festgestellt wurde.
# [3] = hypothalamic amenorrhea, 50 mg pro Tag während 24 oder 28 Tagen
# [4] = patients with hypothalamic amenorrhea, summary statement
smiles,measurement,setting,value
"O=C1CC[C@@]2(O)[C@H]3Cc4ccc(O)c5c4[C@@]2(CCN3CC2CC2)C1O5 (stereo partly drawn) [Naltrexon, 17-(Cyclopropylmethyl)-4,5-epoxy-3,14-dihydroxymorphinan-6-on]",Verweildauer im Plasma,[1],lange
same,Entwicklung der Follikel,"[2]; by ultrasound, hypothalamic amenorrhea, 50 mg pro Tag während 24 oder 28 Tagen",Zunahme
same,Amplitude der pulsatielen Gonadotropin Sekretion,[2]; [3],Zunahme
same,Entwicklung der Gonaden-Steroid Sekretion,[2]; [3],Zunahme
same,Frequenz der pulsatielen Gonadotropin Sekretion,[2]; [3],Zunahme
same,mittlere FSH Serumkonzentration,[2]; [3],Zunahme
same,mittlere LH Serumkonzentration,[2]; [3],Zunahme
same,Menstruation nach Absetzen des Mittels,"[2]; patients who menstruated after withdrawal, hypothalamic amenorrhea, 50 mg pro Tag während 24 oder 28 Tagen",Sämtliche Patientinnen menstruierten
same,Ovulation,"[2]; patients who ovulated, hypothalamic amenorrhea, 50 mg pro Tag während 24 oder 28 Tagen","führte zur Normalisierung der Gonadotropin-Sekretion, zur Ovulation; also recorded: Eine von 3 Patientinnen ovulierte"
same,Bildung eines Corpus luteum,[2]; [4],zur Bildung eines Corpus luteum
same,Gonadotropin-Sekretion,[2]; [4],Normalisierung
same,menstrueller Zyklus,[2]; [4],Normalisierung
